Source: paper PMC10896388, “Hybrid Allosteric Modulators of M1 Muscarinic Receptors Enhance Acetylcholine Efficacy and Decrease Locomotor Activity and Turning Behaviors in Zebrafish” (Research Square, 2024)
“Also recorded” adds a separate entry of the source. Where two headings read alike, the source gives them in different places.

Assays:
[1] = system: wild-type (AB) zebrafish (Danio rerio); test: Maximum tolerated concentration (MTC) determination in zebrafish larvae; assay type: in vivo; settings: for MTC (maximum tolerated concentration): 5 dpf zebrafish larvae, after 24-hr exposure; for signs of toxicity (in words): zebrafish, concentrations up to 30 μM, the highest concentration tested
Experimental: Determination of maximum tolerated concentration (adapted from Berghmans)[52] was completed by placing 5 days post fertilization (dpf) wild-type zebrafish larvae in a 24 well plate at 6 fish per well, and one compound concentration per well. […] Death was determined by the absence of heartbeat. Additional endpoints were used to assess toxicity at non-lethal concentrations such as startle capacity (poke stimulus), abnormalities in swimming behavior (loss of dorsoventral balance), and gross morphological deformities (bent body). […] The MTC determination was used to select three doses of each compound (low, medium, high dose) to be used in behavioral assays.

[2] = system: wild-type (AB) zebrafish (Danio rerio); assay type: in vivo; settings: zebrafish larvae; 30-minute spontaneous swimming period; mean ± s.e.m., N = 12; test concentration not given
[3] = molecular target: T1, human M1 muscarinic receptors (Homo sapiens, UniProt P11229); test: [3H]-arachidonic acid release in CHO cells expressing M1 receptors, with and without ACh; assay type: cell-based; set-up: expressed in transfected cells; host or cells: CHO cells (stably transfected CHO-hM1, from Mark Brann's laboratory, NIH); settings: for intrinsic agonist activity (in words): [3H]AA release in the absence of ACh, 10 µM; for modulation of ACh response (in words): modulators at 10 µM (amiodarone 30 µM)
T1 sequence (P11229 1-460): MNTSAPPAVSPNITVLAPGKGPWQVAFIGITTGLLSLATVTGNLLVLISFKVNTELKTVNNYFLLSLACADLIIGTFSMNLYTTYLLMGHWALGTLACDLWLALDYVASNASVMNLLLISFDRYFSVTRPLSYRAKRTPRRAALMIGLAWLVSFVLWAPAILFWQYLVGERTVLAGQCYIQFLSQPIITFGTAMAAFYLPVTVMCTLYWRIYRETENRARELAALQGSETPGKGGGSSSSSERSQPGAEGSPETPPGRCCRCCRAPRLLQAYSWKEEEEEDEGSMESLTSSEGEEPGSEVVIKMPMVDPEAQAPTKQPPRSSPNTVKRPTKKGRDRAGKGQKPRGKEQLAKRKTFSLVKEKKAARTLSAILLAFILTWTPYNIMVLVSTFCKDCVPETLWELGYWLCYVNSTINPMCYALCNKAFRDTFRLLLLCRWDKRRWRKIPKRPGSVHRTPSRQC
Experimental: CHO cells expressing human M1 muscarinic receptors were cultured at 37°C in a 5% CO2 atmosphere in F12 medium supplemented with 5% fetal bovine serum, 100 units/mL penicillin, and 100µg/mL streptomycin. These cells were obtained from Mark Brann’s laboratory when they were at NIH and have been in use by us and others for many years.[49]
Measurement of [^3H]AA release was performed as described in Stahl and Ellis.[24] Stably transfected CHO-hM1 cells were seeded on 24-well plates (Greiner Bio-One GmbH, Frickenhausen, Germany) at a density of 5.0 × 10^4 cells/well in 0.5 ml of F-12 medium. Cells were incubated until they attached (approximately 3 h), followed by the addition of [^3H]AA to a final concentration of 0.05 µCi of [^3H]AA per well. The cells were then grown for 16 to 20 h before the assay was performed. [^3H]AA release was measured in Eagle’s basal medium with 20 mM HEPES and 2 mg/ml fatty acid-free bovine serum albumin (EM-BSA). Cells were rinsed twice with EM-BSA, followed by the addition of EM-BSA media containing experimental agents and incubated for 1 h at 37°C. The assay was terminated by aspiration of the media, and the amount of [^3H]AA released was determined by liquid scintillation counting (Beckman-Coulter LS6500). […]
Tabulated [^3H]AA release data are represented as a fraction of maximal release elicited by ACh or as the fraction of release elicited by the relevant concentration of ACh alone, as indicated. Dose-response curves were normalized to the maximal response of ACh without allosteric ligand. Where indicated, response curves were analyzed using the empirical four-parameter equation: […] where X is the concentration of the ligand used, Y is the amount of response, C50 is the concentration of the ligand that produces 50% of the maximal effect, Top and Bottom are the top and bottom plateaus of the curve, and n is related to the Hill slope for the curve. Where indicated, families of response curves were analyzed according to an allosteric operational model:[50],[51]

[4] = system: wild-type (AB) zebrafish (Danio rerio); test: animal or person; assay type: in vivo; settings: for effect on locomotor activity and turning behaviors (in words) / concentration with significant effects on zebrafish behavior: AB zebrafish; for effect on locomotor activity and turning behaviors (in words): 30-minute spontaneous swimming period; for concentration with significant effects on zebrafish behavior: compared with BQCA; for EC50: Danio rerio, AB zebrafish larvae; for Therap. Index: zebrafish, apparently MTC / MEC
Experimental: The movement of larval zebrafish was monitored with the Noldus behavior recording system (Noldus Information Technology, Leesburg VA) and quantified using EthoVision® XT 15 software (Noldus Information Technology, Leesburg VA). Five-dpf zebrafish larvae were exposed to a range of nonlethal concentrations of compounds in a 24-well plate with appropriate controls. The plate was immediately placed in the incubator for a 30-minute exposure period. After 30 minutes, the plate was transferred to the Noldus system and swimming behavior was recorded in 100% light for 30 minutes to measure spontaneous swimming behavior. The light was switched off for 10 minutes (dark period) and then switched on for 10 minutes (light period), which was then repeated for two additional cycles. In total, the larvae were exposed to three cycles of alternating 10-minute dark and light periods (100% darkness-to-100% light). Each drug challenge was conducted on three separate plates with n = 6 larvae/dose/plate.
Absolute turn angle (TA) and angular velocity provided measures of the extent of turning behavior, while the intra-individual variance of turn angle quantified how consistently (low variance) or inconsistently (high variance) fish turned. A lowered intra-individual variance of turning reflected repeatedly performing the same turning behavior, a stereotypy.[53]
All data for exposure and the behavioral end points were analyzed by one-way ANOVA (factor: drug concentration) followed by a Dunnett’s multiple comparisons test for post hoc significance between drug concentration and control group. Statistically significant differences are noted as follows; *, p < 0.05; **, p < 0.01; ***, p < 0.001.

[5] = molecular target: T1, human M1 muscarinic receptors; test: Full ACh dose-response curves of [3H]AA release fitted to an allosteric operational model
Experimental: Tabulated [^3H]AA release data are represented as a fraction of maximal release elicited by ACh or as the fraction of release elicited by the relevant concentration of ACh alone, as indicated. Dose-response curves were normalized to the maximal response of ACh without allosteric ligand. Where indicated, response curves were analyzed using the empirical four-parameter equation: Y=Top+Bottom−Top/1+X/C50^n where X is the concentration of the ligand used, Y is the amount of response, C50 is the concentration of the ligand that produces 50% of the maximal effect, Top and Bottom are the top and bottom plateaus of the curve, and n is related to the Hill slope for the curve. Where indicated, families of response curves were analyzed according to an allosteric operational model:[50],[51]
where EM is the maximal response; A is the concentration of ACh; B is the concentration of the allosteric ligand; τA and τB represent the operational efficacies of A and B, respectively; KA and KB are the equilibrium dissociation constants of A and B; and α and β represent the cooperativities between A and B in terms of binding and activation, respectively. Curve-fitting was carried out with GraphPad Prism, version 5.0 or 6.0 (San Diego CA).

[6] = best-fit parameter, allosteric operational model, Em set to 2.0, ACh as agonist
[7] = read-out: EC50 for decreasing locomotor activity
[8] = read-out: EC50 for decreasing repetitive behaviors (increasing angular velocity)

CCCCc1oc2ccccc2c1C(=O)c1cc(I)c(OCCN(CC)C(=O)c2ccccc2)c(I)c1 [Compound 5b, N-(2-(4-(2-butylbenzofuran-3-carbonyl)-2,6-diiodophenoxy)ethyl)-N-ethylbenzamide]
MTC (maximum tolerated concentration) [1]: 10 µM | Angular Velocity, percentage change relative to controls [2]: 80.4 ± 11.5% | Distance Moved, percentage change relative to controls [2]: 87.7 ± 13.5% | Variance Turn Angle, percentage change relative to controls [2]: 77.8 ± 9.3% | intrinsic agonist activity (in words) [3]: lacked intrinsic activity | increase in mAChR activity compared to treatment with ACh alone ([3]; [3H]AA release, CHO-hM1, predominantly at higher doses of ACh (Table 2, not available)): 80%

CCN(CC)CCOc1ccc(CN2C(=O)C(=O)c3ccccc32)cc1 [Compound 7, 1-(4-(2-(diethylamino)ethoxy)benzyl)indoline-2,3-dione]
MTC (maximum tolerated concentration) [1]: 10 µM | effect on locomotor activity and turning behaviors (in words) [4]: not effective in reducing locomotor activity or elevating angular velocity or variance of turn angle | Kd [5]: 0.631 µM | Activation cooperativity, A-B, β [5, 6]: 0.99 ± 0.12 | Binding cooperativity, A-B, α [5, 6]: 0.18 ± 0.095 | Operational Efficacy-B, τB [5, 6]: 0.032 ± 0.02 | intrinsic agonist activity (in words) [3]: lacked intrinsic activity | modulation of ACh response (in words) ([3]; [3H]AA release, CHO-hM1): primarily decreased potency and slightly enhanced the efficacy of ACh activity; also recorded: decreased ACh potency with little impact on ACh efficacy

COc1c(I)cc(CN2C(=O)C(=O)c3ccccc32)cc1I [Compound 8a, 1-(3,5-diiodo-4-methoxybenzyl)indoline-2,3-dione]
MTC (maximum tolerated concentration) [1]: > 30 µM | signs of toxicity (in words) [1]: neither produced any signs of toxicity | effect on locomotor activity and turning behaviors (in words) [4]: reduced locomotor activity | concentration with significant effects on zebrafish behavior [4]: 1 µM | EC50 [4, 7]: 5.6 µM | EC50 [4, 8]: 2.6 µM | Therap. Index [4]: > 100 | Kb [5]: 0.55 µM | Kd [5]: 0.55 µM | Binding cooperativity, A-B, α [5, 6]: 0.69 ± 0.24 | Operational Efficacy-B, τB [5, 6]: 0.17 ± 0.03 | modulation of ACh response (in words) ([3]; [3H]AA release, CHO-hM1): significant enhancement of ACh activity; also recorded: dramatically enhanced ACh efficacy

COc1c(Br)cc(CN2C(=O)C(=O)c3ccccc32)cc1Br [Compound 8c, 1-(3,5-dibromo-4-methoxybenzyl)indoline-2,3-dione]
MTC (maximum tolerated concentration) [1]: > 30 µM | signs of toxicity (in words) [1]: neither produced any signs of toxicity | concentration with significant effects on zebrafish behavior [4]: 1 µM | EC50 [4, 7]: 1 µM | EC50 [4, 8]: 1.1 µM | Kb [5]: 3 µM | Kd [5]: 2.95 µM | Binding cooperativity, A-B, α [5, 6]: 0.98 ± 0.39 | Operational Efficacy-B, τB [5, 6]: 0.33 ± 0.06 | modulation of ACh response (in words) ([3]; [3H]AA release, CHO-hM1): dramatically enhanced ACh efficacy

VU0238408 [reference compound]
MTC (maximum tolerated concentration) [1]: 30 µM | MEC ([4]; zebrafish larvae, locomotor behaviors, abbreviation not defined in the paper): 1 µM | Therap. Index [4]: 30 | Angular Velocity, percentage change relative to controls [2]: 180.1 ± 20.3 % | Distance Moved, percentage change relative to controls [2]: 34.6 ± 4.0 % | Variance Turn Angle, percentage change relative to controls [2]: 146.6 ± 12.4 %
